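Test compounds were applied to cells in 96-well plates for 48 hours at 5 doses. At the TGI there is no net growth.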
Assays:
Assay in all cases: inhibition of tumour cell growth, NCI panel, 48 h
DU-145 prostate = tested on: DU-145 prostate
K-562 leukemia = tested on: K-562 leukemia
OVCAR-5 ovarian = tested on: OVCAR-5 ovarian
SR leukemia = tested on: SR leukemia
NCI-H460 lung = tested on: NCI-H460 lung
MCF7 breast = tested on: MCF7 breast
OVCAR-8 ovarian = tested on: OVCAR-8 ovarian
OVCAR-3 ovarian = tested on: OVCAR-3 ovarian
HS 578T breast = tested on: HS 578T breast
NCI-H226 lung = tested on: NCI-H226 lung
RXF 393 renal = tested on: RXF 393 renal
UACC-62 melanoma = tested on: UACC-62 melanoma
NCI/ADR-RES ovarian = tested on: NCI/ADR-RES ovarian
MDA-MB-435 = tested on: MDA-MB-435
MDA-MB-231 breast = tested on: MDA-MB-231 breast
CCRF-CEM leukemia = tested on: CCRF-CEM leukemia
SN12C renal = tested on: SN12C renal
HL-60(TB) leukemia = tested on: HL-60(TB) leukemia
HCT-116 colon = tested on: HCT-116 colon
MOLT-4 leukemia = tested on: MOLT-4 leukemia
HOP-92 NSCLC = tested on: HOP-92 NSCLC
UO-31 renal = tested on: UO-31 renal
SK-MEL-28 melanoma = tested on: SK-MEL-28 melanoma
PC-3 prostate = tested on: PC-3 prostate
MDA-N = tested on: MDA-N
SF-268 CNS = tested on: SF-268 CNS
HT29 colon = tested on: HT29 colon
NCI-H23 lung = tested on: NCI-H23 lung
OVCAR-4 ovarian = tested on: OVCAR-4 ovarian
A498 renal = tested on: A498 renal
HOP-62 NSCLC = tested on: HOP-62 NSCLC
TK-10 renal = tested on: TK-10 renal
A549 NSCLC = tested on: A549 NSCLC
NCI-H522 lung = tested on: NCI-H522 lung
EKVX NSCLC = tested on: EKVX NSCLC
SF-295 CNS = tested on: SF-295 CNS
T-47D breast = tested on: T-47D breast
SK-MEL-2 melanoma = tested on: SK-MEL-2 melanoma
HCT-15 colon = tested on: HCT-15 colon
RPMI-8226 leukemia = tested on: RPMI-8226 leukemia
KM12 colon = tested on: KM12 colon
UACC-257 melanoma = tested on: UACC-257 melanoma
HCC-2998 colon = tested on: HCC-2998 colon
U251 CNS = tested on: U251 CNS
COLO 205 colon = tested on: COLO 205 colon
IGROV1 ovarian = tested on: IGROV1 ovarian
SK-OV-3 ovarian = tested on: SK-OV-3 ovarian
LOX IMVI melanoma = tested on: LOX IMVI melanoma
SW-620 colon = tested on: SW-620 colon
SK-MEL-5 melanoma = tested on: SK-MEL-5 melanoma
SF-539 CNS = tested on: SF-539 CNS
M14 melanoma = tested on: M14 melanoma
SNB-19 CNS = tested on: SNB-19 CNS
ACHN renal = tested on: ACHN renal
786-0 renal = tested on: 786-0 renal
CAKI-1 renal = tested on: CAKI-1 renal

Measured: TGI

Cc1c(C(=O)O)n2c(=S)[nH]nc2c2ccccc12
> 100 µM: all assays above

From PubChem BioAssay (NCI)
